In patent US9845318B2, “Class of near infrared optical probes for biological applications” (The University of Akron, priority 2012, dated 2017):
Counter-ions that a name gives are not always drawn.

Columns and labels:
Hela cells = experiment: Fluorescence imaging of intracellular Zn^2+ in Hela cells; type: cell-based
Procedure: The Zinhbo-5 sensor was applied on Hela cells, in order to examine whether the probe could be useful in living systems under a confocal laser scanning microscopy. […] After three times washing with PBS buffer, the cells were incubated with ZnCl2 (10 μM) in the medium for another 30 min at 37° C., and the fluorescence in living cells was much brighter (FIG. 20, at D).
Hela cells were cultured in DEME (Invitrogen) supplemented with 10% FCS (Invitrogen). One day before imaging, cells were seeded in 24-well flat-bottomed plates. The next day, the Hela cells were incubated with 10 μM sensor Zinhbo-5 for 0.5 h at 37° C. under 5% CO2 and then washed with phosphate-buffered saline (PBS) three times before incubating with 10 μM ZnCl2 for another 0.5 h, cells were rinsed with PBS three times again, then the fluorescence imaging of intracelluar Zn2+ was observed under Nikon eclipase TE2000-5 inverted fluorescence microscopy with a 32× objective lens. The Hela cells only incubated with 10 μM Zinhbo-5 for 0.5 hour at 37° C. under 5% CO2 was as a control. For all images, the microscope settings, such as brightness, contrast, and exposure time were held constant to compare the relative intensity of intracellular Zn^2+ fluorescence.

[1] = Determination of association constant by fluorescence titration with Zn^2+; type: binding
Procedure: (§1) The NIR emission intensity at ˜710 nm was linearly proportional to the Zn^2+ concentration (linearly dependent coefficient: R^2=0.9982) (FIGS. 18 and 19). […] The association constants K11 and K12 were determined by a nonlinear least-squares analysis of fluorescence intensity versus Zn^2+ ion concentration to be 3.21×10^5 M^−1 and 3.88×10^10 M^−2, respectively.
An approximate linear fit formula is used to calculate the single association constant Kass1 and Kass2:
[formula] where n is the number of equivalents of the added metal ions, F0 is the fluorescence intensity of the free sensor, and F1 is the fluorescence intensity in the presence of excess cation, C0 is the initial concentration of Zinhbo-5. Kass1 and Kass2 can be obtained by a linear analysis of (F1−F)(x) versus

[2] = Fluorescence response of the sensor in solution upon addition of Zn^2+; type: physicochemical
Excerpt: Free ligand Zinhbo-5 gave only weak green fluorescence at 520 and 560 nm. The green fluorescence signal was increased gradually upon addition of Zn^2+ (FIGS. 12 and 13). In addition, a new emission peak at ˜763 nm occurred, which has a very large Stokes shift (˜285 nm). The new emission band was attributed to the keto form arising from the ESIPT process (FIGS. 14 and 15). […] This is because the substituent at the 5-position of benzoxazole unit exerts less electronic interferences to the anticipated ESIPT process (as shown in structure 5). […] The stronger ESIPT from 9 could be associated with the increased rigidity, when two ligands were assembled together via chelation with Zn^2+ cation.
as §1
All the solvents were of analytic grade. The salt used in stock solutions of metal ions were Zn(OAc)2.2H2O, Co(OAc)2.4H2O, Ni(OAc)2.4H2O, Cu(OAc)2.H2O, MgSO4, Cd(OAc)2.6H2O, Mn(OAc)2.4H2O, FeCl2. 4H2O, CaCl2, Na2SO4, Hg(OAc)2, AgNO3, Pb(OAc)2.3H2O, KNO3. Water used was ultra filter deionized and purchased from fisher. HEPES (2-[4-(2-hydroxyethyl)-1-piperazinyl]-ethanesulfonic acid) was from Fisher. NMR spectra were collected on a Varian 300 Gemini spectrometer. Mass spectrometric data were obtained on a HP1100LC/MSD mass spectrometry. UV-Vis spectra were acquired on a Hewlett-Packard 8453 diode-array spectrometer. Fluorescence spectra were obtained on a HORIBA Jobin Yvon NanoLog spectrometer. All pH measurements were made with a model RS232 meter. The fluorescence quantum yield were obtained using quinine sulfate as the standard (Φ=0.53, 0.1 M H2SO4). Cell fluorescence imaging were obtained on a Nikon Eclipse TE2000-5 fluorescence microscope, and analyzed by MetaFluor software (Universal Imaging Corp.).

zebrafish = experiment: Imaging of Zn^2+ in developing zebrafish, probe added to fish tank water; type: in vivo
Excerpt: The most attractive application for zinc probes is sensing Zn^2+ in living organisms. Our ability to discover the fundamental roles of Zn^2+ is dependent on the tools available to detect the Zn^2+ population/concentration in living biological systems. Zebrafish has recently become an important model organism for the study of vertebrate imaging. This is because the embryos of zebrafish are transparent, allowing for clear observation of their organs without the need for dissection. The optical transparancy of zebrafish, therefore, provides a convenient organism for detection of ions by fluorescence microscopy. […] Encouraged by the cell permeability (FIG. 20), Zinhbo-5 was thus examined in developing zebrafish of various stages by adding Zinhbo-5 to fish tank water (treatment lasted for one hour at room temperature). […] However, there were more labeling in other parts of the body in the Zn^2+ treated larvae (FIG. 22 at I). […] Herein the in vivo recognition of the zinc-rich organ in zebrafish larva could be seen with higher image quality by using Zinhbo-5. […] The in vivo results with sensor Zinhbo-5 are somewhat different in light of the previously reported data where zinc was detected using fluorescent sensors in zebrafish. In those studies, fluorescent labeling was concentrated in the heart ventricle of embryos (50 hpf), and scattered throughout the body in larvae (4-5-day old). Whereas Zinhbo-5 labeling is confined mainly to the nose and neuromasts of the lateral line system during this period.
All images show lateral views of live embryos (anterior to the left and dorsal up). The labeled cells are scattered throughout the embryo at 17 hpf (panels A and B). Panel B is a higher magnification of the mid-trunk region of the embryo shown in panel A. Arrowheads in panel B indicate several labeled cells. Zinhbo-5 labeling becomes more restricted as development proceeds. At 50 hpf, Most labeled cells are concentrated in the nose neuromasts of the lateral line system (panels C-F). Arrowheads and asterisks in panels C and D point to some neuromasts in the posterior lateral line system on this side and the other side of the body trunk, respectively. Panels E and F are higher magnifications of the head region of the labeled embryos. Embryos in panels D and F had been treated with Zn2+ before Zinhbo-5 labeling. (Abbreviations: io2, infraorbital line neuromast 2; ml1, middle line neuromast 1; n, nose; o1 and o2, otic lateral line neuromasts 1 and 2; po1, postorbital neuromast 1; so2, supraorbital line neuromast 2).
All images show lateral views (anterior to the left and dorsal up) of live zebrafish larvae. Panels A-C are low magnification images showing almost the entire fish; panels D-F show higher magnification of the head region, while panels G-J show higher magnification of the mid-trunk region of the fish. Panels A, D and G are from larvae labeled with Zinhbo-5. Panels B, E and I are from larvae that had been treated with zinc before exposed to Zinhbo-5. Panels C, F and J are from larvae that were simultaneously treated with Zinhbo-5 and TPEN. […] (Abbreviations: io1 and io3, infraorbital line neuromasts 1 and 3; so1, supraorbital line neuromast 1; ye, yolk extension. Other abbreviations are the same as in FIG. 9).

[3] = 0.1 M H2SO4; cited from earlier work

CC(C)(C)c1ccc2oc(-c3cc(O)c(-c4nc5c(CN(Cc6ccccn6)Cc6ccccn6)cccc5o4)cc3O)nc2c1 [Zinhbo-5]
fluorescence inside living cells, probe only (Hela cells; 10 μM probe, 30 min, 37° C.): very weak fluorescence | cell viability in bright-field transmission image (Hela cells; cells treated with probe and Zn^2+): viable throughout the imaging experiments | toxicity to the cell culture (Hela cells; imaging conditions): primarily nontoxic | cell permeability (Hela cells; living cells): cell-permeable | fluorescence in living cells after incubation with ZnCl2 (Hela cells; then ZnCl2 (10 μM), 30 min, 37° C.): much brighter | emission intensity after subsequent addition of TPEN (Hela cells; zinc chelator TPEN added after Zn^2+): reverted the emission intensity to that of the zinc-free system | association constant K12 / overall association constant Kass ([1]; 2:1 host-guest complex, fluorescence at 710 nm): 3.88×10^10 M^−2 | Kd (sensitivity for Zn^2+) ([1]; aqueous solution): 2.58 nM^2 | association constant Kass2 ([1]; fluorescence at 710 nm): 121000 M⁻¹ | association constant K11 / Kass1 ([1]; fluorescence intensity versus Zn^2+ concentration, 710 nm): 321000 M⁻¹ | new emission peak upon addition of Zn^2+ ([2]; FIGS. 12 and 13, keto form ESIPT emission): ~763 nm | fluorescence quantum yield Φfl upon addition of one equivalent Zn2+ ([2]; HEPES buffer solution with 50% EtOH, 1 equivalent Zn2+): 0.17 | fluorescence quantum yield Φfl of free ligand ([2]; HEPES buffer solution with 50% EtOH, no Zn^2+): 0.081 | fluorescence enhancement upon zinc binding (green emission) ([2]; aqueous solution): about 14 fold | NIR emission strength upon zinc binding, comparison ([2]; at ~763 nm, THF, excitation 480 nm (FIG. 14), Zinhbo-5 vs Zinhbo-1, 9 vs crystal 10): quite stronger NIR emission | Stokes shift of the new emission peak ([2]; peak at ~763 nm): ~285 nm | distribution of labeled zinc-concentrated cells (zebrafish; 17 hpf, one hour treatment at room temperature): distributed throughout the embryos | distribution of labeled zinc-concentrated cells (zebrafish; 50 hpf and 72 hpf): mainly located in the nose and neuromasts of the lateral line system | labeling pattern in older larvae (zebrafish; 82 hpf): remained similar | labeling in lateral line structures, exogenous Zn^2+ treated vs untreated larvae (zebrafish; 82 hpf, Zn^2+ 20 μM): no obvious difference | labeling in larvae treated with TPEN (zebrafish; 82 hpf, zinc chelator TPEN): almost completely eliminated

C=C[C@H]1C[N@@]2CC[C@H]1C[C@H]2[C@H](O)c1ccnc2ccc(OC)cc12 [quinine sulfate]
fluorescence quantum yield of standard [3]: 0.53
